Reference: patent US20090060997A1, “PROCESS FOR PRODUCING A PHARMACEUTICAL PREPARATION FOR THERAPEUTIC TREATMENT OF ENDOMETRIOSIS CONTAINING A COMBINATION OF A GESTAGEN AND (6S)-5-METHYLTETRAHYDROFOLATE” (priority 2007, published 2009)

Assays:
[1] = test system: women with laparoscopically diagnosed endometriosis; assay: Clinical study in endometriosis: pain scale (Visual Analog Scale, VAS) questionnaire; type: in vivo; conditions: 6 months; for reduction in pain (VAS) at the end of the treatment compared to the beginning of the study: DNG 2 mg/day orally, LA 3.75 mg s.c. every 4 weeks
From the text: (§1) 128 patients were randomly assigned to the LA group and 124 patients to the DNG group. The efficacy of the therapy was examined, among other ways, with the aid of a pain scale (Visual Analog Scale, VAS) questionnaire that was filled out by the patient.

[2] = parameters: species or system women; conditions: in vivo
From the text: as §1

[3] = test system: persons affected with endometriosis; conditions: 2 mg of dienogest daily for 24 weeks; cited from earlier work
ovulation = conditions: daily dose; cited from earlier work

drop in bone density [2]	SMILES	statistical analysis of pain reduction versus LA ([1]; DNG 2 mg/day orally vs LA 3.75 mg s.c. every 4 weeks)	reduction in pain (VAS) at the end of the treatment compared to the beginning of the study [1] [mm]	result of the treatment of endometriosis [3]	ovulation-inhibiting dose (ovulation) [mg]
no reduction in bone density	C[C@]12CCC3=C4CCC(=O)C=C4CC[C@H]3[C@@H]1CC[C@@]2(O)CC#N [dienogest, 17α-cyano-methyl-17-β-hydroxy-estra-4,9-dien-3-one]	not inferior to LA	−47.5	comparable to that with Danazol or with a GnRH agonist	
	CC(=O)O[C@]1(C(C)=O)CC[C@H]2[C@@H]3C=C(Cl)C4=CC(=O)CC[C@]4(C)[C@H]3CC[C@@]21C [chlormadinone acetate]				1.7
	CC(=O)O[C@]1(C(C)=O)CC[C@H]2[C@@H]3C=C(Cl)C4=CC(=O)[C@@H]5C[C@@H]5[C@]4(C)[C@H]3CC[C@@]21C [cyproterone acetate]				1
4%	CCNC(=O)[C@@H]1CCCN1C(=O)[C@H](CCCNC(=N)N)NC(=O)[C@H](CC(C)C)NC(=O)[C@@H](CC(C)C)NC(=O)[C@H](Cc1ccc(O)cc1)NC(=O)[C@H](CO)NC(=O)[C@H](Cc1c[nH]c2ccccc12)NC(=O)[C@H](Cc1c[nH]cn1)NC(=O)[C@@H]1CCC(=O)N1 [LA, leuprorelin acetate]		−46.0		
